Reference: PMC6683251, “Flavanol Bioavailability in Two Cocoa Products with Different Phenolic Content. A Comparative Study in Humans” (Nutrients, 2019)

Test: Urinary excretion of flavanol metabolites (0-24 h) after a single serving of soluble cocoa product (HPLC-ESI-QToF-MS)
Assay type: in vivo, human
Conditions: mean ± SD, n = 13; for Excreted in urine, Total: 24 h urine; for Excreted in urine, Basal: basal urine (−2–0 h, before intake)
Experimental: They were non-smoker, non-vegetarian, non-pregnant women, who were not taking any medication or nutritional supplements, and were not suffering from any chronic pathology or gastrointestinal disorder. The sample size was estimated attending to similar previous bioavailability studies. The volunteers gave their informed consent prior to participation.
The present randomized, single-blind study was carried out at the Human Nutrition Unit (HNU) of the Institute of Food Science, Technology and Nutrition (ICTAN). Volunteers attended the HNU on two days, separated by two weeks. Three days previous to each visit, participants were instructed not to consume cocoa products (chocolate, soluble cocoa, etc.), juices, tea, wine, grape must, oranges, tangerines, apples, grapes, strawberries or other berries, beets, onions, soybeans and soy derivatives.
On each intervention day, volunteers arrived at the HNU after an overnight fast. […] The soluble cocoa products, either 15 g of CC or 25 g CC-PP, were dissolved in 200 mL of semi-skimmed milk following manufacturer’s preparation instructions. Plasma was separated by centrifugation (10 min, 3000 rpm, 4 °C) and stored at −80 °C until further analysis. […] A polyphenol-free breakfast, lunch and afternoon snack were provided 2 h, 4 h, and 8 h after consumption of cocoa products, and water and isotonic beverages were available ad libitum.
Urine samples were diluted with an equivalent volume of Milli-Q water (50%) and centrifuged at 14000 rpm (10 min, 4 °C). Supernatants were filtered (0.45 μm pore-size cellulose-acetate membrane filters) and a 5 µL aliquot was directly injected into the LC-ESI-QToF-MS equipment.
The test samples, either 30 μL of the plasma extract or 5 μL of diluted urine, were injected and separated using a mobile phase consisting of Milli-Q water (phase A) and acetonitrile (phase B), both containing 0.1% formic acid, at a flow rate of 0.3 mL/min. The mobile phase was initially programmed with 90% of solvent A and 10% of B. The elution program increased to 30% of solvent B in 10 min. Then, the initial conditions (10% solvent B) were recovered in 5 min and maintained for 5 min.
Due to the lack of standards for certain phase II metabolites, they were tentatively quantified using the calibration curves of their corresponding phenolic precursors. […] The rest of microbial metabolites identified, derivatives of hydroxyphenylpropionic, hydroxyphenylacetic, hydroxybenzoic and hippuric acids, were quantified using their respective commercially available standards. Urine concentration of the excreted metabolites was normalized by the volume excreted in each studied interval. […] Calibration curves were freshly prepared in a pool of both plasma and urine due to matrix effects.
Statistical analyses were carried out using the program SPSS (version 23.0, SPSS, Inc., IBM Company, New York, NY, USA). Significant differences between metabolites excreted in urine after consumption of CC and CC-PP cocoa products were evaluated based on non-parametric Wilcoxon test (p < 0.05). To determine the absorption and elimination of epicatechin metabolites after consumption of the soluble cocoa products, metabolite nutrikinetics were studied using the pharmacokinetic functions of Microsoft Excel, calculating the maximum concentration (Cmax), area under curve (AUC) and time to reach maximum concentration (Tmax). Data are expressed as mean ± standard deviation.

[1] = after CC-PP (68.25 mg flavanols)

Compound: Epicatechin-3′-methoxy-glucuronide
- Excreted in urine, Total (after CC (19.80 mg flavanols)): <L.Q. *
- Excreted in urine, 0–4 h (after CC (19.80 mg flavanols)): <L.Q.
- Excreted in urine, 4–8 h (after CC (19.80 mg flavanols)): <L.Q.
- Excreted in urine, Total [1]: 0.121 ± 0.036 µmol
- Excreted in urine, 0–4 h [1]: 0.121 ± 0.036 µmol
- Excreted in urine, 4–8 h [1]: <L.Q.
- Excreted in urine, 8–12 h [1]: <L.Q.

Compound: Hydroxybenzoic acid [Hidroxybenzoic acid]
- Excreted in urine, Basal (CC intervention): 0.188 ± 0.041 µmol
- Excreted in urine, Basal (CC-PP intervention): 0.212 ± 0.037 µmol
- Excreted in urine, Total (after CC (19.80 mg flavanols)): 0.798 ± 0.162 µmol
- Excreted in urine, 0–4 h (after CC (19.80 mg flavanols)): 0.145 ± 0.027 µmol
- Excreted in urine, 4–8 h (after CC (19.80 mg flavanols)): 0.200 ± 0.051 µmol
- Excreted in urine, 8–12 h (after CC (19.80 mg flavanols)): 0.070 ± 0.018 µmol
- Excreted in urine, 12–24 h (after CC (19.80 mg flavanols)): 0.195 ± 0.025 µmol
- Excreted in urine, Total [1]: 1.380 ± 0.365 µmol
- Excreted in urine, 0–4 h [1]: 0.396 ± 0.060 µmol
- Excreted in urine, 4–8 h [1]: 0.298 ± 0.036 µmol
- Excreted in urine, 8–12 h [1]: 0.172 ± 0.063 µmol
- Excreted in urine, 12–24 h [1]: 0.302 ± 0.169 µmol

Compound: O=C(O)Cc1cccc(O)c1 [Hydroxyphenylacetic acid, 3-Hydroxyphenylacetic acid]
- Excreted in urine, Basal (CC intervention): 0.369 ± 0.077 µmol
- Excreted in urine, Basal (CC-PP intervention): 0.585 ± 0.070 µmol
- Excreted in urine, Total (after CC (19.80 mg flavanols)): 2.208 ± 0.328 µmol
- Excreted in urine, 0–4 h (after CC (19.80 mg flavanols)): 0.408 ± 0.084 µmol
- Excreted in urine, 4–8 h (after CC (19.80 mg flavanols)): 0.605 ± 0.092 µmol
- Excreted in urine, 8–12 h (after CC (19.80 mg flavanols)): 0.225 ± 0.052 µmol
- Excreted in urine, 12–24 h (after CC (19.80 mg flavanols)): 0.600 ± 0.100 µmol
- Excreted in urine, Total [1]: 2.862 ± 0.654 µmol
- Excreted in urine, 0–4 h [1]: 0.631 ± 0.140 µmol
- Excreted in urine, 4–8 h [1]: 0.678 ± 0.231 µmol
- Excreted in urine, 8–12 h [1]: 0.434 ± 0.070 µmol
- Excreted in urine, 12–24 h [1]: 0.534 ± 0.143 µmol

Compound: COc1ccc(/C=C/C(=O)O)cc1O [Isoferulic acid]
- Excreted in urine, Basal (CC intervention): 0.170 ± 0.137 µmol
- Excreted in urine, Basal (CC-PP intervention): <L.Q.
- Excreted in urine, Total (after CC (19.80 mg flavanols)): 0.522 ± 0.290 µmol
- Excreted in urine, 0–4 h (after CC (19.80 mg flavanols)): 0.086 ± 0.028 µmol
- Excreted in urine, 4–8 h (after CC (19.80 mg flavanols)): 0.096 ± 0.040 µmol
- Excreted in urine, 8–12 h (after CC (19.80 mg flavanols)): 0.088 ± 0.069 µmol
- Excreted in urine, 12–24 h (after CC (19.80 mg flavanols)): 0.082 ± 0.016 µmol
- Excreted in urine, Total [1]: 0.686 ± 0.356 µmol
- Excreted in urine, 0–4 h [1]: 0.164 ± 0.044 µmol
- Excreted in urine, 4–8 h [1]: 0.160 ± 0.066 µmol
- Excreted in urine, 8–12 h [1]: 0.152 ± 0.094 µmol
- Excreted in urine, 12–24 h [1]: 0.210 ± 0.152 µmol

Compound: O=C(O)CCc1ccc(O)cc1 [Hydroxyphenylpropionic acid]
- Excreted in urine, Basal (CC intervention): 0.118 ± 0.023 µmol
- Excreted in urine, Basal (CC-PP intervention): 0.074 ± 0.013 µmol
- Excreted in urine, Total (after CC (19.80 mg flavanols)): 0.883 ± 0.154 µmol
- Excreted in urine, 0–4 h (after CC (19.80 mg flavanols)): 0.226 ± 0.046 µmol
- Excreted in urine, 4–8 h (after CC (19.80 mg flavanols)): 0.259 ± 0.043 µmol
- Excreted in urine, 8–12 h (after CC (19.80 mg flavanols)): 0.077 ± 0.018 µmol
- Excreted in urine, 12–24 h (after CC (19.80 mg flavanols)): 0.203 ± 0.025 µmol
- Excreted in urine, Total [1]: 1.204 ± 0.243 µmol
- Excreted in urine, 0–4 h [1]: 0.350 ± 0.038 µmol
- Excreted in urine, 4–8 h [1]: 0.356 ± 0.076 µmol
- Excreted in urine, 8–12 h [1]: 0.140 ± 0.041 µmol
- Excreted in urine, 12–24 h [1]: 0.284 ± 0.075 µmol

Compound: COc1cc(CCC(=O)O)ccc1O [3-Methoxy-4-hydroxyphenylpropionic acid]
- Excreted in urine, Basal (CC intervention): 0.104 ± 0.027 µmol
- Excreted in urine, Basal (CC-PP intervention): 0.077 ± 0.032 µmol
- Excreted in urine, Total (after CC (19.80 mg flavanols)): 0.248 ± 0.071 µmol
- Excreted in urine, 0–4 h (after CC (19.80 mg flavanols)): 0.144 ± 0.044 µmol
- Excreted in urine, 4–8 h (after CC (19.80 mg flavanols)): <L.Q.
- Excreted in urine, 8–12 h (after CC (19.80 mg flavanols)): <L.Q.
- Excreted in urine, 12–24 h (after CC (19.80 mg flavanols)): <L.Q.
- Excreted in urine, Total [1]: 0.461 ± 0.138 µmol
- Excreted in urine, 0–4 h [1]: 0.175 ± 0.054 µmol
- Excreted in urine, 4–8 h [1]: <L.Q.
- Excreted in urine, 8–12 h [1]: <L.Q.
- Excreted in urine, 12–24 h [1]: 0.199 ± 0.052 µmol
